Peptide text beside a SMILES is read from it. * marks the point of attachment. Dansyl = CN(C)c1cccc2c(S(=O)(=O)*)cccc12

Experiment [1] has as its target T1, N-SH3 D141A (Crkl) (Homo sapiens, UniProt P46109, D141A).
T1 construct: The construct encoding the N-SH3 domain of Crkl was subcloned in a pET28b+ plasmid vector; His-tag; made in house; host or cells: E. coli BL21
Briefly: Stopped-flow displacement, N-SH3 D141A:dansyl-C3G277–296 complex. Type of experiment: binding. The following applies: Hepes 50 mM pH 7.0 + 20% w/v sucrose, 10 °C. The protocol:
To further investigate this aspect, we resorted to performing displacement experiments, targeted to the direct calculation of microscopic dissociation rate constant koff. […] To test this and to slow down the diffusion of molecules, we repeated the experiment increasing the viscosity of the solution adding 20% w/v sucrose to the buffer Hepes 50 mM pH 7.0. Although the trace was satisfactorily fitted with a single-exponential equation, the koff calculated is 800 ± 30 s^−1, a value that is far beyond the resolution capability of the stopped-flow, a consistent part of the reaction occurring in the dead time of the instrument. Based on the calculated affinity of D141A variant for C3G in the absence of sucrose, this dramatic increase in koff might be accompanied by a strong increase in kon.
Kinetic binding experiments were performed on a single-mixing SX-18 stopped-flow instrument (Applied Photophysics), by mixing a constant concentration (0.5 μM) of C3G dansylated versus increasing concentrations of N-SH3 at 10 °C. Ionic strength dependence of wt N-SH3 was performed with concentrations ranging from 1 to 5 µM for 0 M NaCl condition and from 0.5 to 5 µM for 0.15 M, 0.3 M, 0.5 M and 1 M NaCl, buffer Hepes 50 mM pH 7.0. The excitation wavelength was 280 nm, and fluorescence was collected using a 455 nm cut-off filter. […]

In experiment [2] the target is dansylated C3G_(277–296) peptide. Nature of the experiment: stopped-flow displacement kinetics; preincubated complex of D141A N-SH3 (2 µM) and dansyl-C3G (10 µM) mixed with excess nondansylated C3G (50 µM); Hepes 50 mM pH 7.0 with 20% w/v sucrose.

T1 sequence (P46109 123-183 D141A limits assumed): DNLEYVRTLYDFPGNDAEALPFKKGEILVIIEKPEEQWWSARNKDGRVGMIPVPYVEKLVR

The koff is a measure of how fast the partners let go of each other. As for `CC(C)C[C@H](NC(=O)[C@H](C)NC(=O)[C@@H]1CCCN1C(=O)[C@@H]1CCCN1C(=O)[C@@H]1CCCN1C(=O)[C@H](CO)NC(=O)[C@H](CC(N)=O)NC(=O)[C@H](CC(=O)O)NC(=O)[C@@H](NC(=O)[C@@H](NS(=O)(=O)c1cccc2c(N(C)C)cccc12)C(C)C)C(C)C)C(=O)N1CCC[C@H]1C(=O)N1CCC[C@H]1C(=O)N[C@@H](CCCCN)C(=O)N[C@@H](CCCCN)C(=O)N[C@@H](CCCNC(=N)N)C(=O)N[C@@H](CCC(N)=O)C(=O)N[C@@H](CO)C(=O)N[C@@H](C)C(=O)N1CCC[C@H]1C(=O)N[C@@H](CO)C(=O)O` [dansyl-C3G277–296] (Dansyl-VVDNSPPPALPPKKRQSAPS-OH), the koff in experiment [1] was found to be 800 ± 30 s⁻¹.
Turning to “N-SH3 domain of Crkl, D141A variant (domain or fragment)”, the koff in experiment [2] amounted to 800 s⁻¹.
